Data reported in ChEMBL document CHEMBL2146462, “Tyrosinase inhibitory activity of a 6-isoprenoid-substituted flavanone isolated from Dalea elegans” (Bioorg Med Chem, 2011).
One block for each molecule: values may come before it. The source made the active and inactive calls. The rule behind the calls is not given here.

Experiments:
Tyrosinase [1] = target: T1, Tyrosinase (Agaricus bisporus, UniProt O42713)
T1 sequence (O42713 whole entry): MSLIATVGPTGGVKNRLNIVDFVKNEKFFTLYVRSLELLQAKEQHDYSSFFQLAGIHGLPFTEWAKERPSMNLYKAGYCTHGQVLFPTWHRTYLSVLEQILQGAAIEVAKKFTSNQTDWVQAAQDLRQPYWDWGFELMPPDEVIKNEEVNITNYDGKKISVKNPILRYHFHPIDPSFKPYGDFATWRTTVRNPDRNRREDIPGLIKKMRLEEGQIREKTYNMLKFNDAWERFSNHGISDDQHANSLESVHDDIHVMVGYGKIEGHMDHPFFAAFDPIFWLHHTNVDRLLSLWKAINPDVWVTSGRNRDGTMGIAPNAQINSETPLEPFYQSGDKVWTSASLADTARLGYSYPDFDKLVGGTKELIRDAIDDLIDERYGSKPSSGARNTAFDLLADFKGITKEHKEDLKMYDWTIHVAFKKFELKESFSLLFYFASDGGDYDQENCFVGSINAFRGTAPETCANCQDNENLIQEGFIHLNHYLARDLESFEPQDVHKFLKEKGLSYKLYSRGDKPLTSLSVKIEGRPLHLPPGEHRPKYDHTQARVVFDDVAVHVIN

Tyrosinase [2] = target: T1, Tyrosinase; remark: listed apart in the source
Description: Inhibition of mushroom tyrosinase using as L-DOPA substrate after 2 mins by spectrophotometric analysis

[3] = target: T2, Tyrosinase (Agaricus bisporus) (UniProt O42713); test: […] mixed-I type inhibition of mushroom tyrosinase using L-tyrosine substrate by Lineweaver-Burk double reciprocal plot analysis
T2 sequence (whole entry): T1 sequence (O42713 whole entry)

[4] = target: T2, Tyrosinase (Agaricus bisporus); test: Potency index, ratio Ki for kojic acid to compound against mushroom tyrosinase assessed as inhibition constant for compound-free enzyme using as L-tyrosine substrate by spectrophotometric analysis
[5] = target: T2, Tyrosinase (Agaricus bisporus); test: Potency index, ratio IC50 for (Z,Z)-5-trideca-4,7-dienyl)-resorcinol to compound against mushroom tyrosinase assessed as inhibition constant for compound-free enzyme using as L-tyrosine substrate by spectrophotometric analysis
Tyrosinase [6] = target: T1, Tyrosinase; test: Inhibition of mushroom tyrosinase assessed as inhibition constant for compound-free enzyme using as […] substrate by spectrophotometric analysis
[7] = target: T2, Tyrosinase (Agaricus bisporus); test: Potency index, ratio IC50 for hydroquinone to compound against mushroom tyrosinase using as […] substrate after 10 mins by spectrophotometric analysis
[8] = target: T2, Tyrosinase (Agaricus bisporus); test: Potency index, ratio IC50 for hydroquinone to compound against mushroom tyrosinase using as L-tyrosine substrate after 10 mins by spectrophotometric analysis
[9] = target: T2, Tyrosinase (Agaricus bisporus); test: Competitive inhibition of mushroom tyrosinase using L-tyrosine substrate by Lineweaver-Burk double reciprocal plot analysis
[10] = target: T2, Tyrosinase (Agaricus bisporus); test: Inhibition of mushroom tyrosinase assessed as reduction in reaction rate of L-tyrosine oxidation by spectrophotometric analysis
[11] = target: T2, Tyrosinase (Agaricus bisporus); test: Potency index, ratio IC50 for arbutin to compound against mushroom tyrosinase assessed as inhibition constant for compound-free enzyme using as L-tyrosine substrate by spectrophotometric analysis
[12] = target: T2, Tyrosinase (Agaricus bisporus); test: Reversible inhibition of mushroom tyrosinase using L-DOPA substrate by spectrophotometric analysis
[13] = target: T2, Tyrosinase (Agaricus bisporus); test: Reversible inhibition of mushroom tyrosinase using L-tyrosine substrate by spectrophotometric analysis
[14] = target: T2, Tyrosinase (Agaricus bisporus); test: Potency index, ratio IC50 for kojic acid to compound against mushroom tyrosinase using as L-tyrosine substrate after 10 mins by spectrophotometric analysis
[15] = target: T2, Tyrosinase (Agaricus bisporus); test: Potency index, ratio Ki for kojic acid to compound against mushroom tyrosinase diphenolase activity
Tyrosinase [16] = target: T1, Tyrosinase; test: Inhibition of mushroom tyrosinase assessed as inhibition constant for compound-free enzyme using as L-tyrosine substrate by spectrophotometric analysis
[17] = target: T2, Tyrosinase (Agaricus bisporus); test: Potency index, ratio IC50 for ascorbic acid to compound against mushroom tyrosinase assessed as inhibition constant for compound-free enzyme using as L-tyrosine substrate by spectrophotometric analysis
Tyrosinase [18] = target: T1, Tyrosinase; test: Inhibition of mushroom tyrosinase assessed as inhibition constant for compound-enzyme-substrate complex using as L-tyrosine substrate by spectrophotometric analysis
[19] = Metal chelating activity of the compound assessed as formation of copper complex at 84.66 uM after 1 min by UV-vis spectroscopy; type: functional
Tyrosinase [20] = target: T1, Tyrosinase; remark: listed apart in the source
Description: Inhibition of mushroom tyrosinase using as L-tyrosine substrate after 10 mins by spectrophotometric analysis

[21] = target: T2, Tyrosinase (Agaricus bisporus); test: Noncompetitive inhibition of mushroom tyrosinase using […] substrate by Lineweaver-Burk double reciprocal plot analysis
[22] = target: T2, Tyrosinase (Agaricus bisporus); test: Inhibition of mushroom tyrosinase assessed as lag time for L-tyrosine oxidation at 5.51 uM by spectrophotometric analysis
Tyrosinase [23] = target: T1, Tyrosinase; test: Inhibition of mushroom tyrosinase assessed as inhibition constant for compound-enzyme-substrate complex using as […] substrate by spectrophotometric analysis

- IC50 (Tyrosinase [2]): 26.5 µM
- IC50 (Tyrosinase [20]): 1.3 µM
SMILES: O=C1CC(c2ccc(O)cc2O)Oc2cc(O)cc(O)c21 (centres undefined) [STEPPOGENIN]

- IC50 (Tyrosinase [2]): 1090 µM
- IC50 (Tyrosinase [20]): 13.5 µM
SMILES: Oc1ccc(O)cc1 [HYDROQUINONE]

Continued, molecule first:

SMILES: O=S([O-])O.[Na+] [SODIUM BISULFITE]
- IC50 (Tyrosinase [1]): 210 µM

SMILES: CCCCC/C=C\C/C=C\CCCc1cc(O)cc(O)c1
- IC50 (Tyrosinase [1]): 1.7 µM
- IC50 (Tyrosinase [2]): 51.9 µM

SMILES: CC1(C)C=Cc2c(cc3c(c2O)C(=O)CC(c2ccc(O)cc2O)O3)O1 (centres undefined) [DALENIN]
- inhibition [3]: Active
- Ratio Ki [4]: 15
- Ratio IC50 [5]: 3
- Ki (Tyrosinase [6]): 160 µM
- Ratio IC50 [7]: 59
- Ratio IC50 [8]: 52
- inhibition [9]: Active
- inhibition [10]: Active
- Ratio IC50 [11]: 285
- inhibition [12]: Active
- inhibition [13]: Active
- IC50 (Tyrosinase [2]): 18.6 µM
- Ratio IC50 [14]: 495
- Ratio Ki [15]: 8
- Ki (Tyrosinase [16]): 1.98 µM
- Ratio IC50 [17]: 7
- Ki (Tyrosinase [18]): 7.6 µM
- Activity [19]: Active
- IC50 (Tyrosinase [20]): 0.26 µM
- inhibition [21]: Active
- TIME [22]: 0.167 h
- Ki (Tyrosinase [23]): 160 µM
